Data as given in ChEMBL document CHEMBL2203238, “Hit to Lead optimization of a novel class of squarate-containing polo-like kinases inhibitors” (Bioorg Med Chem Lett, 2012).
pKi: −log10 of the molar value. Active and inactive are the calls of the source. The calls are words filed in the database; no cut-off is given here.

How the values were obtained:
[1] = target: Serine/threonine-protein kinase PLK1 (Homo sapiens, UniProt P53350); experiment: Inhibition of recombinant GST-tagged PLK1 using biotin-ahx-AKMETTFYDDALNASFLPSEKKK-amide as substrate after 30 mins by scintillation counting analysis in presence of gamma-[33P]ATP
Serine/threonine-protein kinase PLK1, sequence (P53350 whole entry): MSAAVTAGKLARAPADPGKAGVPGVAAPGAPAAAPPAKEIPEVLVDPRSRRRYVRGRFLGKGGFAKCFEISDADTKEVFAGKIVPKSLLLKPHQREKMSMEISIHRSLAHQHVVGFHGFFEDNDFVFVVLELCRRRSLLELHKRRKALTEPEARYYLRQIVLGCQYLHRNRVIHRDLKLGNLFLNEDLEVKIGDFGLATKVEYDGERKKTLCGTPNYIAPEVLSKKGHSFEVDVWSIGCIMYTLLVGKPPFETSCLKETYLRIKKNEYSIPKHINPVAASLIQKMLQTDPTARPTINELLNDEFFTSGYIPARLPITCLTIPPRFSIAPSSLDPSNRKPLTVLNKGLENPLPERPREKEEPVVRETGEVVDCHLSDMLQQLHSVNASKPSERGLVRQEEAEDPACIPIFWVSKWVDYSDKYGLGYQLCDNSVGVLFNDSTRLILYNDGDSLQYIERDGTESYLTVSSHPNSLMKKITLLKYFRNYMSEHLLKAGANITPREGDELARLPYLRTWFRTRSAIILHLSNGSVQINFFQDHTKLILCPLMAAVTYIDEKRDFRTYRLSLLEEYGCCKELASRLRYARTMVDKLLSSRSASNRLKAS

MIA PaCa-2 = experiment: Antitumor activity against human MIAPaCa2 cells xenografted in SCID mouse assessed as tumor growth inhibition at 120 mg/kg/day, ip measured on day 21 to day 44 relative to vehicle-treated control; type: functional, organism-based
[2] = Half life in mouse; type: ADME, organism-based; details: in vivo
[3] = Oral bioavailability in mouse; type: ADME, organism-based; details: in vivo

pKi [1]	SMILES	other results
4.75	O=c1c(Nc2ccc(OC(F)(F)F)cc2)c(Nc2ccnc(Nc3ccc(-c4ccccc4)cc3)n2)c1=O	–
6.50	C[C@@H](Nc1c(Nc2ccnc(Nc3cccc4ccccc34)n2)c(=O)c1=O)C(C)(C)C	–
7.55	CC(C)(C)Nc1c(Nc2ccnc(Nc3ccc(-c4cccnc4)cc3)n2)c(=O)c1=O	–
< 4.36	C[C@@H](Nc1c(Nc2ccnc(Nc3cccnc3)n2)c(=O)c1=O)C(C)(C)C	–
7.85	CC(C)(C)Nc1c(Nc2ccnc(Nc3ccc(-c4ccccc4)cc3)n2)c(=O)c1=O	–
7.82	CC(C)(C)Nc1c(Nc2ccnc(Nc3ccc(-c4csnn4)cc3)n2)c(=O)c1=O	–
4.39	C[C@@H](Nc1c(Nc2ccnc(Nc3ccccn3)n2)c(=O)c1=O)C(C)(C)C	–
6.78	C[C@@H](Nc1c(Nc2ccnc(Nc3ccc4c(c3)OCO4)n2)c(=O)c1=O)C(C)(C)C	–
7.39	C[C@@H](Nc1c(Nc2ccnc(Nc3ccc4c(c3)Cc3ccccc3-4)n2)c(=O)c1=O)C(C)(C)C	–
4.60	CC(Nc1c(Nc2ccnc(Nc3ccc(-c4ccccc4)cc3)n2)c(=O)c1=O)c1ccccc1 (centres undefined)	–
6.63	C[C@@H](Nc1c(Nc2ccnc(Nc3ccc(F)cc3)n2)c(=O)c1=O)C(C)(C)C	–
7.37	CC(C)(C)Nc1c(Nc2ccnc(Nc3ccc4ncsc4c3)n2)c(=O)c1=O	–
6.21	C[C@@H](Nc1c(Nc2ccnc(Nc3ccc(OC(F)(F)F)cc3)n2)c(=O)c1=O)C(C)(C)C	–
6.00	Cc1ccc(Nc2nccc(Nc3c(N[C@H](C)C(C)(C)C)c(=O)c3=O)n2)cc1	–
6.48	C[C@@H](Nc1c(Nc2ccnc(Nc3cccc(-c4ccccc4)c3)n2)c(=O)c1=O)C(C)(C)C	–
5.00	C[C@@H](Nc1nccc(Nc2c(N[C@H](C)C(C)(C)C)c(=O)c2=O)n1)c1ccccc1	–
7.12	C[C@@H](Nc1c(Nc2ccnc(Nc3ccc(-c4ccccc4)cc3)n2)c(=O)c1=O)C(C)(C)C	–
5.74	CC(C)(C)CNc1c(Nc2ccnc(Nc3ccc(-c4ccccc4)cc3)n2)c(=O)c1=O	–
< 5.06	CC(C)(C)Nc1c(Nc2nc(Nc3ccc4c(c3)Cc3ccccc3-4)ncc2F)c(=O)c1=O	–
< 4.36	C[C@@H](Nc1c(Nc2ccnc(Nc3ccncc3)n2)c(=O)c1=O)C(C)(C)C	–
8.40	CC(C)(C)Nc1c(Nc2ccnc(Nc3ccc4c(c3)Cc3ccccc3-4)n2)c(=O)c1=O	–
5.11	COc1cc(Nc2ncc(C#N)c(Nc3c(N[C@H](C)C(C)(C)C)c(=O)c3=O)n2)cc(OC)c1OC	–
8.00	CC(C)(C)Nc1c(Nc2ccnc(Nc3ccc(-c4cn[nH]c4)cc3)n2)c(=O)c1=O	–
7.70	CC(=O)N1CCc2cc(Nc3nccc(Nc4c(NC(C)(C)C)c(=O)c4=O)n3)ccc21	–

pKi [1]	SMILES	other results
5.93	CC(C)CC(C)Nc1c(Nc2ccnc(Nc3ccc(-c4ccccc4)cc3)n2)c(=O)c1=O (centres undefined)	–
4.49	C[C@@H](Nc1c(Nc2ccccc2)c(=O)c1=O)C(C)(C)C	–
7.09	CC(C)(C)Nc1c(Nc2ccnc(Nc3ccc(-c4ccccn4)cc3)n2)c(=O)c1=O	–
–	Nc1ccn([C@@H]2O[C@H](CO)[C@@H](O)C2(F)F)c(=O)n1	TGI (MIA PaCa-2): Active
6.11	COc1ccc(Nc2nccc(Nc3c(N[C@H](C)C(C)(C)C)c(=O)c3=O)n2)c(OC)c1	–
5.07	O=c1c(NCCN2CCOCC2)c(Nc2ccnc(Nc3ccc(-c4ccccc4)cc3)n2)c1=O	–
7.77	CC(C)(C)Nc1c(Nc2ccnc(Nc3ccc4[nH]ncc4c3)n2)c(=O)c1=O	–
6.56	C[C@@H](Nc1c(Nc2ccnc(Nc3ccc(Oc4ccccc4)cc3)n2)c(=O)c1=O)C(C)(C)C	–
6.78	CC(C)C(C)Nc1c(Nc2ccnc(Nc3ccc(-c4ccccc4)cc3)n2)c(=O)c1=O (centres undefined)	–
6.45	C[C@@H](Nc1c(Nc2ccnc(Nc3ccc(Br)cc3)n2)c(=O)c1=O)C(C)(C)C	–
< 4.36	C[C@@H](Nc1c(Nc2cccnc2)c(=O)c1=O)C(C)(C)C	–
6.85	COc1ccc(Nc2nccc(Nc3c(N[C@H](C)C(C)(C)C)c(=O)c3=O)n2)cc1	–
7.33	C[C@H](Nc1c(Nc2ccnc(Nc3ccc(-c4ccccc4)cc3)n2)c(=O)c1=O)C(C)(C)C	–
–	C[C@@H](Nc1c(Nc2ccncc2)c(=O)c1=O)C(C)(C)C	half-life [2]: 23.4 min; bioavailability [3]: 54%
6.59	C[C@@H](Nc1c(Nc2ccnc(Nc3ccc4c(c3)OCCO4)n2)c(=O)c1=O)C(C)(C)C	–
7.07	C[C@@H](Nc1c(Nc2ccnc(Nc3ccc4ccccc4c3)n2)c(=O)c1=O)C(C)(C)C	–
8.00	CC(C)(C)Nc1c(Nc2ccnc(Nc3ccc4c(c3)[nH]c3ccccc34)n2)c(=O)c1=O	–
6.57	C[C@@H](Nc1c(Nc2ccnc(Nc3ccc(Cl)cc3)n2)c(=O)c1=O)C(C)(C)C	–
7.66	CC(C)(C)Nc1c(Nc2ccnc(Nc3ccc4c(c3)CCO4)n2)c(=O)c1=O	–
4.85	O=c1c(NCC2CC2)c(Nc2ccnc(Nc3ccc(-c4ccccc4)cc3)n2)c1=O	–
7.89	CCC(C)(C)Nc1c(Nc2ccnc(Nc3ccc(-c4ccccc4)cc3)n2)c(=O)c1=O	–
6.76	CC(C)(C)Nc1c(Nc2ccnc(Nc3ccc(N4CCOCC4)cc3)n2)c(=O)c1=O	–
6.33	C[C@@H](Nc1c(Nc2ccnc(Nc3ccccc3)n2)c(=O)c1=O)C(C)(C)C	–
6.63	COc1cc(Nc2nccc(Nc3c(N[C@H](C)C(C)(C)C)c(=O)c3=O)n2)cc(OC)c1OC	–
